The values below are quoted from earlier work in patent US20260325541A1, “BENZGALANTAMINE FOR TREATING PERSISTENT POST-CONCUSSION SYMPTOMS” (Alpha Cognition Inc., priority 2023, published 2026).

Structures are written as SMILES.

For data set [1], the system named is patients with chronic TBI. The note with it: oral, cited from earlier work.
In data set [2] the test system is pre-clinical models. To be noted: cited from earlier work.
For data set [3] the following is noted: nausea, vomiting and diarrhea; Cochrane review 2006; cited from earlier work.
The test system of data set [4] is microglial phagocytic activity. To be noted: cited from earlier work.

For `COc1ccc2c3c1O[C@H]1C[C@@H](O)C=C[C@@]31CCN(C)C2` [galantamine], the adverse effects entry in data set [1] (chronic TBI patients) was “about half of all patients experienced disturbing adverse effects”. In addition, the TBI-related symptoms entry in data set [1] (patient reported, not placebo controlled) is reported as “subjective improvement of TBI-related symptoms”. In addition, in data set [2] (active metabolite of benzgalantamine), the pre-clinical effects entry is reported as “increase cholinergic activation, reduce neuroinflammation, improve blood-brain barrier function, activate cell survival signalling pathways as well as increase neurogenesis”. Besides, the “glutamate and beta-amyloid toxicity” value in data set [2] is “decrease both glutamate and beta-amyloid toxicity”. For the same compound, in data set [3], the “gastro-intestinal (GI) side effects” value is reported as “clinically significant level of mechanism-based gastro-intestinal (GI) side effects”. Moreover, the microglial phagocytic activity result in data set [4] is recorded as “activation of microglial phagocytic activity”.
